Eleven compounds from patent publication US20080193398A1, “Derivatives of Heptaazaphenalene, Methods for Obtaining Them, and Their Use as Protecting Agents Against Uv Radiation” (ISDIN, S.A., priority 2005, published 2008) can be followed below.

A short description of the first data set: UV absorption (UV λmax and εmax) in solution. It is filed as physicochemical. As to conditions: CHCl3-MeOH. An excerpt: There follow some examples where the UV λmax and εmax have been measured according to general methods known for the person skilled in the art by way of non-restrictive illustration of the present invention.
Regarding `c1ccc2[nH]c(-c3ccc(NC4=NC5=NC(Nc6ccc(-c7nc8ccccc8[nH]7)cc6)=NC6=NC(Nc7ccc(-c8nc9ccccc9[nH]8)cc7)=NC(=N4)N56)cc3)nc2c1` [Example 7, 2,5,8-tris-(4-(1H-benzo[d]imidazol-2-yl)phenylamino)-1,3,4,6,7,9,9b-heptaazaphenalene], the “UV λmax” value is reported as 358 nm and the εmax worked out at 107000 M⁻¹ cm⁻¹.

The same data set, now with this note: DMSO.
As for `c1ccn2cc(-c3ccc(NC4=NC5=NC(Nc6ccc(-c7cn8ccccc8n7)cc6)=NC6=NC(Nc7ccc(-c8cn9ccccc9n8)cc7)=NC(=N4)N56)cc3)nc2c1` [Example 3, 2,5,8-tris-(4-(imidazo[1,2-a]pyridin-2-yl)-phenylamino)-1,3,4,6,7,9,9b-heptaazaphenalene], the “UV λmax” value was found to be 353 nm and the εmax was found to be 75000 M⁻¹ cm⁻¹.

In the case of `c1ccc(-c2ccc(NC3=NC4=NC(Nc5ccc(-c6ccccc6)cc5)=NC5=NC(Nc6ccc(-c7ccccc7)cc6)=NC(=N3)N45)cc2)cc1` [Example 6, 2,5,8-tris-(biphenyl-4-ylamino)-1,3,4,6,7,9,9b-heptaazaphenalene], the “UV λmax” value came to 333 nm and the εmax is 103000 M⁻¹ cm⁻¹.

In the case of `CCCCOC(=O)c1ccc(NC2=NC3=NC(Nc4ccc(C(=O)OCCCC)cc4)=NC4=NC(c5cn(C)c6ccccc56)=NC(=N2)N34)cc1` [Example 18], the “UV λmax” value is 337 nm and the εmax was 65000 M⁻¹ cm⁻¹.

In the case of `c1ccc(-c2ccc(OC3=NC4=NC(Oc5ccc(-c6ccccc6)cc5)=NC5=NC(Oc6ccc(-c7ccccc7)cc6)=NC(=N3)N45)cc2)cc1` [Example 19, 2,5,8-tris-(biphenyl-4-yloxy)-1,3,4,6,7,9,9b-heptaazaphenalene], the “UV λmax” value is listed as 262 nm and the εmax came to 81000 M⁻¹ cm⁻¹.

Regarding `COc1ccc(NC2=NC3=NC(Nc4ccc(OC)cc4)=NC4=NC(Nc5ccc(OC)cc5)=NC(=N2)N34)cc1` [Example 21, 2,5,8-tris-(4-methoxyphenylamino)-1,3,4,6,7,9,9b-heptaazaphenalene], the “UV λmax” value is recorded as 324 nm and the εmax turned out to be 59000 M⁻¹ cm⁻¹.

Take `COC(=O)c1ccc(-c2ccc(NC3=NC4=NC(Nc5ccc(-c6ccc(C(=O)OC)cc6)cc5)=NC5=NC(Nc6ccc(-c7ccc(C(=O)OC)cc7)cc6)=NC(=N3)N45)cc2)cc1` [Example 23, 2,5,8-tris-(methoxycarbonyl-4′-biphenyl-4-ylamino)-1,3,4,6,7,9,9b-heptaazaphenalene]: the “UV λmax” value came to 346 nm and the εmax was 99000 M⁻¹ cm⁻¹.

As for `Cc1ccc(C2=NC3=NC(c4ccc(C)cc4)=NC4=NC(c5ccc(C)cc5)=NC(=N2)N34)cc1` [Example 25, 2,5,8-tris-(4-methylphenyl)-1,3,4,6,7,9,9b-heptaazaphenalene], the “UV λmax” value is listed as 327 nm and the εmax stood at 86000 M⁻¹ cm⁻¹.

For the compound `c1ccc(Nc2ccc(NC3=NC4=NC(Nc5ccc(Nc6ccccc6)cc5)=NC5=NC(Nc6ccc(Nc7ccccc7)cc6)=NC(=N3)N45)cc2)cc1` [Example 27, 2,5,8-tris-(4-(phenylamino)phenylamino)-1,3,4,6,7,9,9b-heptaazaphenalene], the “UV λmax” value was 360 nm and the εmax is 60000 M⁻¹ cm⁻¹.

As for `CCCCC(CC)CNC1=NC2=NC(NCC(CC)CCCC)=NC3=NC(NCC(CC)CCCC)=NC(=N1)N23` (stereo not shown) [Example 29, 2,5,8-tris-(2-ethylhexylamino)-1,3,4,6,7,9,9b-heptaazaphenalene], the “UV λmax” value is on record as 265 nm and the εmax amounted to 92000 M⁻¹ cm⁻¹.

The data set is the same for the next values; noted with them: EtOH.
With `Cc1cc2c(n1-c1ccc(NC3=NC4=NC(Nc5ccc(-n6c(C)cc7c6CC(C)(C)CC7=O)cc5)=NC5=NC(Nc6ccc(-n7c(C)cc8c7CC(C)(C)CC8=O)cc6)=NC(=N3)N45)cc1)CC(C)(C)CC2=O` [Example 4, 2,5,8-tris-(4-(4,5,6,7-tetrahydro-2,6,6-trimethyl-4-oxoindol-1-yl)phenylamine)-1,3,4,6,7,9,9b-heptaazaphenalene], the “UV λmax” value worked out at 314 nm and the εmax was determined as 103000 M⁻¹ cm⁻¹.
